{"source": "patent US9023853B2", "about": "“Janus kinase 2 (JAK2) inhibitor for the treatment of lupus” (Cephalon, Inc., priority 2010, dated 2015)", "type_in_all_cases": "in vivo, mouse", "key": {"NZM mice [1]": {"tested_on": "NZM mice", "assay": "Urinalysis total urine protein (proteinuria) in NZM mice", "method": "Urine samples were acid precipitated for total protein recovery and analysis. Samples for which enough urine remained were used for Uristix® leukouria analysis (MRL/lpr study only). Briefly, a standard protein solution was prepared from normal mouse sera and was used as a standard for mouse urinary protein assay by turbidity. Standard preparation was as follows: 0, 5, 10, 15, 20, 30, 40, and 50 μL of a 4 mg/mL mouse sera standard protein solution as provided in the kit were added in duplicate into two columns. PBS was added to individual wells to adjust the final volume to 50 μL. For urine sample preparation, urine samples were centrifuged at 9880×g for 3 minutes using a tabletop micro-centrifuge. Urine supernatant (1-50 μL) was added in duplicate. PBS was added to adjust the volume to 50 μL total. For the turbidity assay: 25 μL of 0.1 N HCl was added into blank columns and 250 μL of 3% sulfosalicyclic acid into the test columns. The microplate was incubated for 10 minutes at RT and plates were read using an ELISA reader with single beam at 450 nm. For the Uristix® strip assay, strips were laid out and labeled. Twenty microliters of urine were placed onto each test strip square and incubated for at least 30 seconds before the result was recorded. For all total urine analysis plate-based assays, values below the limit of detection set by the lowest point along the standard or set by the manufacturer were considered out of range and were not estimated, but assumed the lowest point along the standard curve for that particular assay.\n(§1) Age mated, female, NZM or NZW/LacJ, mice were matured for the study of lupus nephritis for a total of 7 months or 210 days at which time urine was collected for proteinuria detection. Mice with 0.5-1.0 mg/ml of urine protein as determined by an optical density-based total protein precipitation assay and cross-checked for 30-300 mg/dl of protein as determined by a stick assay were considered proteinuria positive and selected for study entry. Groups were normalized to contain a Gaussian distribution of proteinuria positive animals (i.e., ⅓ low proteinuria, ⅓ medium, ⅓ high) then randomized between groups before ear marking and taking baseline measures including urine and serum collections. A total of five mice from the total population were randomly selected for baseline kidney histology evaluation. Treatments and tests for each group are as described in FIG. 12. Briefly, with a minimum of 10 mice per group, COMPOUND A was administered at 100 mg/kg or 55 mg/kg, both twice a day and orally. […] Vehicle included 3% DMSO, 10% Solutol and 87% PBS. […] End-stage lupus nephritis was evaluated by histopathology and scored by a board certified pathologist for the assessment of total renal damage in diseased animals using the scoring method described by Smith et al (Smith, Dong et al. 2007). […] Day-98 or “end of treatment/study” represents 310 days of age for the NZM animals."}, "anti-dsDNA antibodies": {"tested_on": "anti-dsDNA antibodies", "assay": "Serum anti-dsDNA ANA ELISA in NZM mice", "description": "The measurement of anti-dsDNA and anti-Smith antigen antibodies was done by an in-house generated custom ELISA assay. Chromatin coated plates were purchased from Inova Diagnostics, Inc. Purified bovine thymus dsDNA (Sigma, St. Louis, […].) or purified bovine Smith antigen (GenWay, San Diego, Calif.) were used as coating antigen for the detection of anti-dsDNA and anti-Smith Ag antibodies respectively. Coated plates were washed with Borate Sulfate Saline (BSS) and blocked with BSS containing 1% Bovine Serum Albumin (BSA) and 0.1% Tween-20 detergent. Standard curves were generated using mouse anti-chromatin antibody (Sigma, 2B1) or 25 week old MRL/lpr serum. Mouse anti-dsDNA antibody (Abcam, Cambridge, Mass.), or mouse anti-Smith antigen antibody (Abcam) were used as standards for each assay. Secondary antibody was purchased from Abcam (goat anti-mouse pAb-HRP), the substrate was purchased from Rockland (Gilbertsville, Pa.) (TMB), and stop reaction buffer was generated using 1 mL of concentrated sulfuric acid into 20 mL of dH2O. Developed plates were read using a Victor-X4 spectrophotometer reading at […] with a reference wavelength of 570 nm. For all ANA ELISA assays, values below the limit of detection set by the lowest point along the standard or set by the manufacturer were considered out of range and were not estimated, but assumed the lowest point along the standard curve for that particular assay.\nas §1"}, "NZM mice [2]": {"tested_on": "NZM mice", "assay": "Renal histopathology kidney IC-GN scoring in NZM mice", "method": "For histological analyses, the left kidney and lung (NZM model only) from each animal was removed and fixed in 10% buffered neutral 10% formalin (EMD) for 48 hours on an orbital rocker at 25° C., then washed overnight with running dH2O and stored in 70% ethanol at 4° C. until ready to be processed. Kidney stains used for histological analyses included hematoxylin and eosin (H&E), Periodic Acid Schiff (PAS) and Trichrome stains (Wistar Institute, Philadelphia, Pa.). All 3 stained sections were used by the pathologist for scoring purposes. All histological scoring was performed blinded and by an independent board certified veterinary medical pathologist (Julie Engiles, VMD, DACVP; University of Pennsylvania). Multiple stains were used to determine score values. Images in FIGS. 8, 19 and 20 show worst affected area of section selected blindly by the pathologist.\nKidney IC-GN Scoring Method (Smith, Dong et al. 2007):\n1. […]\n2. […]\n3. […]\n4. […]\n5. […]\n6. […]\n7. […]\nAlso considered effacement of the glomerular tuft by PAS positive, Trichrome negative material necrosis. • Glomerular sclerosis was defined by increased fibroplasia or fibrosis within the glomerular tuft or capsule. […] Pharmacodynamic (PD) Analysis\nas §1"}, "[3]": {"conditions": "NZM group mean, CTX 50 mpk 1 × wk"}, "[4]": {"conditions": "NZM individual mouse, CTX 50 mpk 1 × wk"}, "[5]": {"conditions": "NZM mice, CTX 50 mg/kg once weekly ip"}, "[6]": {"conditions": "NZM kidney score (grade 0-5), mean, CTX 50 mg/kg"}}, "note": "Where “and” joins values, the source holds several entries; their conditions need not be identical. Equal entries are not always repeated. Entries after “also recorded” stand apart in the source; their conditions may differ."}
{"molecule": "O=P1(N(CCCl)CCCl)NCCCO1", "note": "(centres unmarked) [CTX, cyclophosphamide, reference compound]", "values": [{"measurement": "I: Proteinuria, MEAN", "setting": "NZM mice [1]; [3]", "value": 2.8, "unit": "mg/mL"}, {"measurement": "I: Proteinuria", "setting": "NZM mice [1]; [4]", "value": "11.09 mg/mL and 0.86 mg/mL and 1.44 mg/mL and 0.76 mg/mL and 1.30 mg/mL and 0.71 mg/mL and 8.84 mg/mL and 0.96 mg/mL and 0.58 mg/mL and 1.50 mg/mL"}, {"measurement": "total urine protein decrease compared to vehicle", "setting": "NZM mice [1]; [5]", "value": 67.1, "unit": "%"}, {"measurement": "A: Anti-dsDNA IgG, MEAN", "setting": "anti-dsDNA antibodies; [3]", "value": 30.9}, {"measurement": "A: Anti-dsDNA IgG", "setting": "anti-dsDNA antibodies; [4]", "value": "13.4 and 6.9 and 22.2 and 13.2 and 40.3 and 9.6 and 65.1 and 52.4 and 24.3 and 61.9"}, {"measurement": "serum anti-dsDNA ANAs decrease compared to vehicle", "setting": "anti-dsDNA antibodies; [5]", "value": 65.3, "unit": "%"}, {"measurement": "B: Glomerular Cellularity", "setting": "NZM mice [2]; [4]", "value": "++ (‘++’ moderate (3)); also recorded: + (‘+’ mild (2)); also recorded: − (‘−’ no disease (1))"}, {"measurement": "C: Glomerular Necrosis", "setting": "NZM mice [2]; [4]", "value": "++ (‘++’ moderate (3)) (2×) and − (‘−’ no disease (1)) (3×) and + (‘+’ mild (2)) (3×) and _"}, {"measurement": "D: Glomerular Sclerosis", "setting": "NZM mice [2]; [4]", "value": "+++ (‘+++’ high (4)); also recorded: − (‘−’ no disease (1)); also recorded: ++ (‘++’ moderate (3)); also recorded: + (‘+’ mild (2))"}, {"measurement": "E: Interstitial Infiltration", "setting": "NZM mice [2]; [4]", "value": "+ (‘+’ mild (2)) (2×) and − (‘−’ no disease (1)) (5×) and +++ (‘+++’ high (4)) and _"}, {"measurement": "F: Tubular Atrophy", "setting": "NZM mice [2]; [4]", "value": "++++ (‘++++’ severe disease (5)); also recorded: − (‘−’ no disease (1)); also recorded: + (‘+’ mild (2)); also recorded: ++ (‘++’ moderate (3))"}, {"measurement": "G: Interstitial Fibrosis", "setting": "NZM mice [2]; [4]", "value": "+++ (‘+++’ high (4)); also recorded: − (‘−’ no disease (1)); also recorded: + (‘+’ mild (2))"}, {"measurement": "H: Vasculitis", "setting": "NZM mice [2]; [4]", "value": "+ (‘+’ mild (2)); also recorded: − (‘−’ no disease (1))"}, {"measurement": "Glomerular Cellularity", "setting": "NZM mice [2]; [6]", "value": 2.0}, {"measurement": "Glomerular Necrosis", "setting": "NZM mice [2]; [6]", "value": 1.77}, {"measurement": "Glomerulosclerosis", "setting": "NZM mice [2]; [6]", "value": 2.11}, {"measurement": "Interstitial Fibrosis", "setting": "NZM mice [2]; [6]", "value": 1.55}, {"measurement": "Interstitial Infiltration", "setting": "NZM mice [2]; [6]", "value": 1.55}, {"measurement": "Tubular Atrophy", "setting": "NZM mice [2]; [6]", "value": 2.00}, {"measurement": "Vasculitis", "setting": "NZM mice [2]; [6]", "value": 1.33}]}
